Experimental data reported in US20060189576A1, “Substituted vitamin d analogues and their therapeutic uses” (priority 2003, published 2006).
Like-named read-outs stand apart in the source and are kept apart here.

Columns and labels:
MCF-7 cells = assay: MCF-7 cell proliferation ([3H]thymidine incorporation); type: cell-based; conditions: for IN VITRO STUDIES MCF-7: antiproliferative action, percentage activity vs 1α,25(OH)2D3 (=100%); for Antiproliferative activity on MCF-7 cells: percentage activity (at 50% of the dose response) vs 1α,25(OH)2D3 (=100%); for antiproliferative effect (in words) / antiproliferative activity, times that of 1α,25(OH)2D3: MCF-7 cells
Description: To evaluate the effect of on cell proliferation, malignant MCF-7 cells were cultured in DMEM/nut. mix. […] Cultures were maintained at 37° C. in a humidified atmosphere of 5% CO2 in air. MCF-7 cells were seeded at 5×10^3 cells/well in the above described medium in 96-well microtiter plates in a final volume of 0.2 ml per well. Triplicate cultures were performed. […] Then, 1 μCi [^3H]thymidine was added to each well and cells were harvested after 4 h incubation with a Packard harvester and measured by the Packard Topcount System (Packard, Meriden, USA).

HL-60 cells = assay: HL-60 cell differentiation (NBT reduction assay); type: cell-based; conditions: for IN VITRO STUDIES HL 60: potency to differentiate HL 60 cells, percentage activity vs 1α,25(OH)2D3 (=100%)
Description: To evaluate the effect on cell differentiation HL-60 cells were seeded at 4×10^4 cells/ml in 25 cm^2 Falcon tissue chambers using RPMI 1640 medium supplemented with 20% FCS and gentamycin (50 μg/ml) in a final volume of 5 ml. Cultures were maintained at 37° C. in a humidified atmosphere of 5% CO2 in air. […] After 4 days of culture, the dishes were shaken to lose adherent cells. Cells were washed twice in RPMI, counted and assayed for differentiation markers (NBT reduction assay). Superoxide production was measured as NBT reducing activity as described previously (Ostrem V. K et al. Proc Natl Acad Sci USA 84: 2610-2614, 1987). HL-60 cells at 1×10^6/ml were mixed with an equal volume of freshly prepared solution of phorbol 12-myristate 13-acetate (200 ng/ml) and […] and incubated for 30 min at 37° C. The percentage of cells containing black formazan deposits was determined using a hemacytometer.

[1] = for Femur calcium: NMRI mice, 7 consecutive days; for IN VIVO STUDIES Osteocalcin serum: mice, daily intraperitoneal injection 7 consecutive days, percentage activity vs 1α,25(OH)2D3 (=100%); for IN VIVO STUDIES Calcium serum / IN VIVO STUDIES Calcium urine / Serum calcium in mice / further reduction of calcemic activity by the 2β counterpart: mouse, in vivo; for IN VIVO STUDIES Calcium serum / IN VIVO STUDIES Calcium urine / Serum calcium in mice: ip
Description: Eight weeks old, male NMRI mice were obtained from the Proefdierencentrum of Leuven (Belgium) and fed a vitamin D-replete diet (0.2% calcium, 1% phosphate, 2000 U vitamin D/kg; Hope Farms, Woerden, The Netherlands). […] The control group was injected with vehicle (arachis oil). The average weight of each group of 6 mice was determined at the beginning and at the end of the experiment. The following parameters were evaluated: serum calcium, serum osteocalcin, femur calcium and urinary calcium. Serum and urinary calcium were measured by a microcolorimetric assay (Sigma, St. Louis, Mo.). Femurs were removed and femur calcium content was measured in HCl-dissolved bone ash (obtained by heating for 24 h in an oven at 100° C.), using the same technique as for serum and urinary calcium.

vitamin D receptor = target: T1, vitamin D receptor (Sus scrofa, UniProt A3RGC1); conditions: percentage activity (at 50% of the dose response) in comparison with 1α,25(OH)2D3 (=100%)
T1 sequence (A3RGC1 1-427): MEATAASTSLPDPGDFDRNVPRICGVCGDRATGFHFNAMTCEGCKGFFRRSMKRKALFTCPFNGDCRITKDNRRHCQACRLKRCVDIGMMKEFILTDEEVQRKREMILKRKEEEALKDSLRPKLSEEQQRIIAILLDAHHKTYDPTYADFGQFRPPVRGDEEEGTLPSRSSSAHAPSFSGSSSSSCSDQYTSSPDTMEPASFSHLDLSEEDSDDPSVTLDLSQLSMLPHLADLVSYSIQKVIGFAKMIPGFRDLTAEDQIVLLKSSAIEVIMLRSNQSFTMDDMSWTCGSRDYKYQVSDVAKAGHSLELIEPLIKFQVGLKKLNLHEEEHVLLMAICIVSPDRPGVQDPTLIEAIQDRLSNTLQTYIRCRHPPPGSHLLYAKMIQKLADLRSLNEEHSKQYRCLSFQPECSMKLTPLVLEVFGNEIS
Description: The incubation was performed at 4° C. for 20 h and phase separation was obtained by addition of dextran-coated charcoal.

hDBP = target: T2, hDBP (Homo sapiens, UniProt P02774); assay: Affinity for human DBP: competition with [3H]1α,25(OH)2D3; type: binding; conditions: percentage activity (at 50% of the dose response) in comparison with 1α,25(OH)2D3 (=100%)
T2 sequence (P02774 17-474): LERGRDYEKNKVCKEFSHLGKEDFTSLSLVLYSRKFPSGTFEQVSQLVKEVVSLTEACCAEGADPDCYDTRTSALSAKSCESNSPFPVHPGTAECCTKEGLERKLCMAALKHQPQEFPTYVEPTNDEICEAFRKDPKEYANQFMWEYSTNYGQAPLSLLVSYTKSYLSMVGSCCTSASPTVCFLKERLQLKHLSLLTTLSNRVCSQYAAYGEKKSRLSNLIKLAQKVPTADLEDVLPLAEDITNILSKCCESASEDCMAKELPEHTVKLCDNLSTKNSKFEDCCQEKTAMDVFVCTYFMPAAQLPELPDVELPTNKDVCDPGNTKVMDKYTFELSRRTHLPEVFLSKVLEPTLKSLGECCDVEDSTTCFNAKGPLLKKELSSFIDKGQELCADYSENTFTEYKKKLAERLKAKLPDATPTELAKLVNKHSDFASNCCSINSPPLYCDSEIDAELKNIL
Description: Phase separation was then obtained by the addition of 0.5 ml of cold dextran-coated charcoal.

IN VIVO STUDIES Calcium serum [1] [%] | IN VIVO STUDIES Calcium urine [1] [%] | AFFINITY STUDIES VDR (vitamin D receptor) [%] | AFFINITY STUDIES DBP (hDBP) [%] | further reduction of calcemic activity by the 2β counterpart [1] [fold] | SMILES | IN VITRO STUDIES MCF-7 (MCF-7 cells) [%] | Antiproliferative activity on MCF-7 cells (MCF-7 cells) [%] | IN VITRO STUDIES HL 60 (HL-60 cells) [%] | Femur calcium ([1]; 0.1 μg/kg/d intraperitoneally) [mg] | Femur calcium ([1]; 0.2 μg/kg/d intraperitoneally) [mg] | Femur calcium ([1]; 0.4 μg/kg/d intraperitoneally) [mg] | IN VIVO STUDIES Osteocalcin serum [1] [%] | Serum calcium in mice [1] [%] | times less active than the parent compound to inhibit MCF-7 cell proliferation (MCF-7 cells; parent compound 1α,25(OH)2D3) [times] | prodifferentiating effect (in words) (HL-60 cells; HL 60 cells) | antiproliferative effect (in words) (MCF-7 cells) | antiproliferative activity, times that of 1α,25(OH)2D3 (MCF-7 cells) [times] | prodifferentiating activity, times that of 1α,25(OH)2D3 (HL-60 cells; HL 60 cells) [times] | increase of capacity to inhibit the proliferation of MCF-7 cells on introduction of the 23-yne side chain (MCF-7 cells; compared with analogue 102) [times] | times more potent than 1α,25(OH)2D3 in vitro (MCF-7 cells; range over HL 60 differentiation and MCF-7 proliferation, test not specified) [times]
0.3 | 0.4 | 19 | 15 |  | C[C@H](CCCC(C)(C)O)[C@H]1CC[C@@H]2/C(=C/C=C3C[C@@H](O)C[C@H](O)C3)CCC[C@@]21C [14-epi-19-nor-1α,25(OH)2D3, reference compound] | 30 |  | 50 |  |  |  |  |  | 3 | half as potent as the parent compound |  |  |  |  | 
0.5 |  | 75 | 9 | 80 | CC(CCCC(C)(C)O)C1CCC2C(=CC=C3CC(O)C(C)C(O)C3)CCCC21C (stereo not drawn) [Compound 101, 2β-methyl-19-nor-1α,25-dihydroxyvitamin D3] | 80 |  | 70 |  |  |  |  |  |  | less potent than 1α,25(OH)2D3 | less potent than 1α,25(OH)2D3 |  |  |  | 
40 |  | 90 | 50 |  | CC(CCCC(C)(C)O)C1CCC2C(=CC=C3CC(O)C(C)C(O)C3)CCCC21C (stereo not drawn) [Compound 102, 2α-methyl-19-nor-1α,25-dihydroxyvitamin D3] | 400 |  | 1000 |  |  |  | 15 |  |  | very potent | very potent | 4 | 10 |  | 
0.4 | 1.6 | 20 | 1 |  | CC(CC#CC(C)(C)O)C1CCC2C(=CC=C3CC(O)C(C)C(O)C3)CCCC21C (stereo not drawn) [Compound 103, 2β-methyl-19-nor-23-yn-1α,25-dihydroxyvitamin D3] | 900 | 900 | 100 |  |  |  | 0.8 | 0.4 |  |  |  |  |  |  | 
10 |  | 70 | 4 |  | CC(CC#CC(C)(C)O)C1CCC2C(=CC=C3CC(O)C(C)C(O)C3)CCCC21C (stereo not drawn) [Compound 104, 2α-methyl-19-nor-23-yn-1α,25-dihydroxyvitamin D3] | 10500 |  | 1500 |  |  |  | 4 |  |  | very potent | very potent | 100 |  | 26 | 
0.4 | 0.4 | 60 | 7 |  | CC(CCCC(C)(C)O)C1CCC2C(=CC=C3CC(O)C(C)C(O)C3)CCCC21C (stereo not drawn) [Compound 105, 14-epi-2β-methyl-19-nor-1α,25-dihydroxyvitamin D3] | 20 |  | 75 |  |  |  | 0.8 |  |  |  |  |  |  |  | 
13 | 6 | 90 | 9 |  | CC(CCCC(C)(C)O)C1CCC2C(=CC=C3CC(O)C(C)C(O)C3)CCCC21C (stereo not drawn) [Compound 106, 14-epi-2α-methyl-19-nor-1α,25-dihydroxyvitamin D3] | 900 |  | 600 |  |  |  | 13 |  |  | very potent | very potent |  |  |  | 
0.4 | 1.6 | 10 | 0 |  | CC(CC#CC(C)(C)O)C1CCC2C(=CC=C3CC(O)C(C)C(O)C3)CCCC21C (stereo not drawn) [Compound 107, 14-epi-2β-methyl-19-nor-23-yn-1α,25-dihydroxyvitamin D3] | 350 |  | 400 |  |  |  | 0.8 |  |  |  |  |  |  |  | 
0.4 | 0.8 | 40 | 9 | 16 | CCC1C(O)CC(=CC=C2CCCC3(C)C2CCC3C(C)CCCC(C)(C)O)CC1O (stereo not drawn) [Compound 109, 2β-ethyl-19-nor-1α,25(OH)2D3] | 90 |  | 10 |  |  |  | 0.8 |  |  | less active than 1α,25(OH)2D3 | less active than 1α,25(OH)2D3 |  |  |  | 
13 | 13 | 90 | 20 |  | CCC1C(O)CC(=CC=C2CCCC3(C)C2CCC3C(C)CCCC(C)(C)O)CC1O (stereo not drawn) [Compound 110, 2α-ethyl-19-nor-1α,25(OH)2D3] | 650 |  | 200 |  |  |  | 13 |  |  | very potent | very potent |  |  |  | 2 to 6
<0.25 | <0.25 | 6 | 3 |  | CC(CC#CC(C)(C)O)C1CCC2C(=CC=C3CC(O)C(C)C(O)C3)CCCC21C (stereo not drawn) [Compound 118, 1,14-bis-epi-2β-methyl-19-nor-23-yn-1α,25-dihydroxyvitamin-D3] |  |  | 0 |  |  |  |  |  |  | not active at all |  |  |  |  | 
 |  | 9 |  |  | CC(CC#CC(C)(C)O)C1CCC2C(=CC=C3CC(O)C(C)C(O)C3)CCCC21C (stereo not drawn) [Compound 141] | 4500 |  | 1500 |  |  |  |  |  |  | very potent | very potent |  |  |  | 
 |  | 10 |  |  | CCC1C(O)CC(=CC=C2CCCC3(C)C2CCC3C(C)CC#CC(C)(C)O)CC1O (stereo not drawn) [Compound 142] | 1500 |  | 400 |  |  |  |  |  |  | very potent | very potent |  |  |  | 

SMILES | IN VIVO STUDIES Calcium serum [1] [%] | IN VIVO STUDIES Calcium urine [1] [%] | AFFINITY STUDIES VDR (vitamin D receptor) [%] | AFFINITY STUDIES DBP (hDBP) [%] | further reduction of calcemic activity by the 2β counterpart [1] [fold] | IN VITRO STUDIES MCF-7 (MCF-7 cells) [%] | Antiproliferative activity on MCF-7 cells (MCF-7 cells) [%] | IN VITRO STUDIES HL 60 (HL-60 cells) [%] | Femur calcium ([1]; 0.1 μg/kg/d intraperitoneally) [mg] | Femur calcium ([1]; 0.2 μg/kg/d intraperitoneally) [mg] | Femur calcium ([1]; 0.4 μg/kg/d intraperitoneally) [mg] | IN VIVO STUDIES Osteocalcin serum [1] [%] | Serum calcium in mice [1] [%] | times less active than the parent compound to inhibit MCF-7 cell proliferation (MCF-7 cells; parent compound 1α,25(OH)2D3) [times] | prodifferentiating effect (in words) (HL-60 cells; HL 60 cells) | antiproliferative effect (in words) (MCF-7 cells) | antiproliferative activity, times that of 1α,25(OH)2D3 (MCF-7 cells) [times] | prodifferentiating activity, times that of 1α,25(OH)2D3 (HL-60 cells; HL 60 cells) [times] | increase of capacity to inhibit the proliferation of MCF-7 cells on introduction of the 23-yne side chain (MCF-7 cells; compared with analogue 102) [times] | times more potent than 1α,25(OH)2D3 in vitro (MCF-7 cells; range over HL 60 differentiation and MCF-7 proliferation, test not specified) [times]
C=C1/C(=C\C=C2/CCC[C@]3(C)[C@@H]([C@H](C)CCCC(C)(C)O)CC[C@@H]23)C[C@@H](O)C[C@@H]1O [1α,25(OH)2D3, 1α,25-dihydroxyvitamin D3, reference compound] | 100 | 100 |  |  |  | 100 | 100 | 100 | 8.9 ± 0.50 | 9.23 ± 0.31 | 8.75 ± 0.15 | 100 | 100 |  |  |  |  |  |  | 
